Data: article PMC11505670, “Four newly synthesized enones induce mitochondrial-mediated apoptosis and G2/M cell cycle arrest in colorectal and cervical cancer cells” (RSC Advances, 2024)

Legend:
Format in all cases: cell-based, human
HeLa cells [1] = experiment: MTT cytotoxicity assay, HeLa; details: for Selectivity index (SI): IC50 healthy cells (MRC-5)/IC50 tumor cells; for Cytotoxicity range: concentration range 1–100 μM; for IC50: Homo sapiens, MTT
Method: (§1) To examine and compare the antiproliferative activities of four enones, the cytotoxicity of the compounds was assessed by the 3-(4,5-dimethylthiazol-2-yl)-2,5-diphenyltetrazolium bromide (MTT) assay[9] in, colon cancer cells (HCT-116), cervical cancer cell line (HeLa) and human fibroblast lung cell line (MRC-5) that was used as a healthy control cell line. After trypsinization, seeded (5 × 10^3 cells per well in 96-well plates) cells were treated with different concentrations of the investigated enones (1, 3, 10, 30, and 100 μM) during 48 and 72 h period incubation period +37 °C and 5–6.5% CO2. After the incubation period, the medium was removed and MTT solution (5 mg ml^−1) was added to the wells.
(§2) After a 3 hour incubation with the MTT solution, the resulting formazan crystals were dissolved in DMSO (67-68-5, Merck). Absorbance was subsequently measured at 595 nm using a microplate reader (Zenith 3100, Anthos Labtech Instruments). The percentage of cytotoxic cells was determined using the formula: cytotoxicity (%) = (1 − (exp. group (ABS))/(control group (ABS)) × 100). IC50 values were calculated using GraphPad Prism 10 software. The selectivity index (SI) was determined using the formula: SI?IC50 value for healthy cells/IC50 value for tumor cells.[9]

HCT-116 cells [2] = experiment: MTT cytotoxicity assay, HCT-116; details: for Cytotoxicity range: concentration range 1–100 μM; for Selectivity index (SI): IC50 healthy cells (MRC-5)/IC50 tumor cells; for IC50: Homo sapiens, MTT
Method: as §1, §2

MRC-5 cells = experiment: MTT cytotoxicity assay, MRC-5 healthy control cells; details: Homo sapiens
Method: as §1, §2

HCT-116 cells [3] = experiment: Annexin V-FITC/7-AAD apoptosis flow cytometry, HCT-116; details: IC50 concentration, 48 h
Method: (§3) The type of cell death was assessed using flow cytometry using FITC Annexin V Apoptosis Detection Kit with 7-AAD (640922, Bio legend).[8] […] After treatment, cells were harvested, washed with PBS (resuspended in 100 μl of ice-cold 1X binding buffer), stained (20 μl of 7-AAD and 10 μl of Annexin V-FITC), and incubated in the dark for 15 min at +4 °C. After incubation, 400 μl of binding buffer was added and the samples were analyzed using flow cytometer Cytomics FC500 (Beckman Coulter, USA). Data analysis was performed using FlowJo Software and presented with histogram and dot plots.

HeLa cells [4] = experiment: Annexin V-FITC/7-AAD apoptosis flow cytometry, HeLa; details: IC50 concentration, 48 h
Method: as §3

[5] = system: Bax and Bcl-2 in HCT-116 cells; experiment: Flow cytometric analysis of Bax and Bcl-2 expression, HCT-116; details: HCT-116, IC50 concentration, 48 h, from MFI
Method: (§4) Cells were washed with PBS, fixed, permeabilized using Fixation and Permeabilization Kit (eBioscience), and stained separately for Bcl-2, Bax, and cleaved-caspase-3.[8,9] Permeabilized cells were incubated with primary antibodies: mouse anti-human-Bcl-2 (DC21, sc-783, Santa Cruz Biotech. Inc.), mouse anti-human Bax (N20, sc-493, Santa Cruz Biotech. Inc.), and anti-cleaved caspase-3 (Cell signaling Technology 9661). Following antibody incubation, cells were washed and incubated with secondary Alexa 488-conjugated antibodies (ab185015, Abcam, United Kingdom) for 30 minutes. After an additional wash with PBS, flow cytometry analysis was performed.
(§5) Data were analyzed using FlowJo Software. The expression of Bcl-2 and Bax proteins was quantified as mean fluorescence intensity (MFI). The results were presented with bar graphs. Bax/Bcl-2 index was calculated using the formula […]. The percentage of cells expressing active caspase-3 (MFI) was presented in histograms.

[6] = system: Bax and Bcl-2 in HeLa cells; experiment: Flow cytometric analysis of Bax and Bcl-2 expression, HeLa; details: IC50 concentration, 48 h; for Bax/Bcl-2 ratio: from MFI
Method: as §4, §5

[7] = system: active caspase-3 in HCT-116 cells; experiment: Flow cytometric analysis of active caspase-3, HCT-116; details: IC50 concentration, 48 h, vs control
Method: as §4, §5

[8] = system: active caspase-3 in HeLa cells; experiment: Flow cytometric analysis of active caspase-3, HeLa; details: IC50 concentration, 48 h, vs control
Method: as §4, §5

[9] = system: mitochondrial membrane potential (ΔΨm) in HCT-116 cells; experiment: Mitochondrial membrane potential (ΔΨm) JC-10 analysis, HCT-116; details: IC50 concentration, 48 h
Method: (§6) Changes in the ΔΨm caused by 48 hours of enones treatment, were assessed using JC-10 dye.[10]. (Enzo Life Sciences, Farmingdale, NY, USA).
(§7) In healthy cells, JC-10 dye accumulates in the mitochondria as red fluorescent aggregates. However, upon cell damage, changes in ΔΨm occur and result in dislocation of JC-10 from the mitochondria to the cytosol and the monomerization of aggregates, shifting fluorescence from red to green. Cells were cultured in 24-well plate (3 × 10^4 cells per well) overnight in the incubator (5% CO2, 37 °C). […] Following treatment, cells were washed with warm 1xPBS and incubated with JC-10 dye (2.5 μM in warm PBS) at 5% CO2, 37 °C for 20 minutes. Cells were then washed with 1xPBS and observed using an Olympus IX50 inverted fluorescence microscope. Images were captured and analyzed using ImageJ software. The ratio of fluorescence emissions at 525 and 590 nm was used for quantification analysis.

[10] = system: mitochondrial membrane potential (ΔΨm) in HeLa cells; experiment: Mitochondrial membrane potential (ΔΨm) JC-10 analysis, HeLa; details: IC50 concentration, 48 h
Method: as §6, §7

[11] = system: cytochrome c in HCT-116 cells; experiment: Cytochrome c localization by immunofluorescence, HCT-116; details: IC50 concentration, 48 h
Method: After 48 hours of treatment, immunofluorescence analysis of cytochrome c distribution and expression in treated cells was performed using glass coverslips.[10] Following the treatment, cells were washed with PBS, fixed in 4% formaldehyde for 20 min, and permeabilized with 0.2% Tween-20. Blocking was performed using a buffer containing 0.1% Tween-20 and 10% FBS for 30 min. The cells were then incubated for 1 hour at room temperature with a monoclonal mouse anti-human cytochrome c antibody (1:100, G7421, Promega, USA,)
Subsequently, the cells were incubated for 30 minutes with a goat anti-mouse FITC (1:200, diluted in blocking buffer), washed, and images were acquired using an inverted fluorescence microscope (Olympus IX50). Image analysis was performed using ImageJ software.

HCT-116 cells [12] = experiment: Cell cycle analysis (PI, flow cytometry), HCT-116; details: IC50 concentration, 48 h; control 27.4%
Method: (§8) After treatment of HCT-116 and HeLa cells with enones, cells were harvested, washed with PBS, and fixed in 70% ice-cold ethanol at +4 °C overnight.[10] The cells were then pelleted, resuspended in 1 ml PBS containing RNAse A (12091021, Sigma Aldrich), and incubated for 30 min at 37 °C. A staining solution containing propidium iodide (1 mg PI per ml PBS) (B7758, Biotrend) was added to cells, followed by 15 min incubation in the dark. Cells were analyzed by flow cytometer Cytomics FC500. DNA content was determined using Flowing Software and cell cycle distribution was presented by graph (histograms).

HeLa cells [13] = experiment: Cell cycle analysis (PI, flow cytometry), HeLa; details: IC50 concentration, 48 h; control 29.9%
Method: as §8

SMILES	Selectivity index (SI) (HeLa cells [1]; 48 h)	Cytotoxicity range (HeLa cells [1]; 48 h)	Cytotoxicity range (HeLa cells [1]; 72 h)	IC50 (HeLa cells [1]; 48 h)	IC50 (HeLa cells [1]; 72 h)	Cytotoxicity range (HCT-116 cells [2]; HCT-116, 48 h)	Selectivity index (SI) (HCT-116 cells [2]; HCT-116, 48 h)	Cytotoxicity range (HCT-116 cells [2]; HCT-116, 72 h)	Selectivity index (SI) (HCT-116 cells [2]; HCT-116, 72 h)	IC50 (HCT-116 cells [2]; HCT-116, 48 h)	IC50 (HCT-116 cells [2]; HCT-116, 72 h)	IC50 (MRC-5 cells; MRC5, MRC-5, 48 h)	IC50 (MRC-5 cells; MRC5, MRC-5, 72 h)	increase of percentage of apoptotic HCT-116 cells compared to control HCT-116 cells (HCT-116 cells [3])	percentage of total apoptotic HCT-116 cells (sum of early and late) (HCT-116 cells [3])	total percentage of apoptotic HeLa cells (HeLa cells [4])	Bax/Bcl-2 ratio [5]	Bax/Bcl-2 ratio [6]	MFI of active caspase-3 in HCT-116 (fold change) [7]	MFI of active caspase-3 in HeLa (fold change) [8]	other results
COc1cc(/C=C/C(=O)C2CC2)ccc1OCC(=O)O [E4, (E)-2-(4-(3-Cyclopropyl-3-oxoprop-1-en-1-yl)-2-methoxyphenoxy)acetic acid]	4.97	12.12–60.72%	42.39–59.81%	20.1 ± 1.19 µM	4.12 ± 0.08 µM	39.29–68.45%	10.62	65.85–71.44%	40.00	9.42 ± 1.78 µM	2 ± 0.01 µM	> 100 µM	> 80 µM	6.7 fold	47.23%	33.18%	1.4	1	1.9 fold change	1.6 fold change	Selectivity index (SI) (HeLa cells [1]; 72 h): 19.41; JC10-green/JC10 red ratio in HCT-116 cells [9]: 1.4; JC10-green/JC10 red ratio in HeLa cells [10]: 1.2; RELATIVE RATIO OF CYTOSOL CYTC TO MITOCHONDRIAL CYT C IN HCT-116 CELLS [11]: 0.9; % OF HCT-116 CELLS, G2/M (HCT-116 cells [12]): 41.4%; % OF HELA CELLS, G2/M (HeLa cells [13]): 61.9%
COc1cc(/C=C/C(C)=O)ccc1OCC(=O)O [E1, (E)-2-(2-Methoxy-4-(3-oxobut-1-en-1-yl)phenoxy)acetic acid]	8.67	3.12–39.24%	39.35–61%	17.3 ± 1.19 µM	3.59 ± 0.03 µM	11.23–72.91%	24.75	65.85–73.44%	58.03	6.06 ± 0.96 µM	1.12 ± 0.01 µM	> 150 µM	> 65 µM	8.5 fold	59.5%	43.03%	1.8	1.1	2.1 fold change	1.9 fold change	percentage of cytotoxic HCT-116 cells compared to HeLa cells (fold) (HCT-116 cells [2]; 48 h, over the applied doses): 1.8–3.6 fold; percentage of cytotoxic HCT-116 cells compared to control MRC-5 cells (fold) (HCT-116 cells [2]; 48 h, over the applied doses): 4.1–4.4 fold; Bcl-2 protein expression vs control cells ([6]; p < 0.05): decreased; JC10-green/JC10 red ratio in HCT-116 cells [9]: 1.6; JC10-green/JC10 red ratio in HeLa cells [10]: 1.4; RELATIVE RATIO OF CYTOSOL CYTC TO MITOCHONDRIAL CYT C IN HCT-116 CELLS [11]: 1.2; % OF HCT-116 CELLS, G2/M (HCT-116 cells [12]): 50.4%; % OF HELA CELLS, G2/M (HeLa cells [13]): 66.9%
